Results on 6 compounds are retold here after patent publication US6395726B1, “3,6-disubstituted penam sulfone derivatives” (priority 1999, dated 2002).

A word on the IC50: it is the concentration that gives 50% inhibition.

In assay [1] the target is TEM-1 β-lactamase (Escherichia coli, UniProt P62593). Kind of assay: β-lactamase inhibition, spectrophotometric, nitrocefin substrate. In kind it is biochemical.
Assay [2] concerns E. coli (TEM-1, Class A). Kind of assay: Microbiological assay, broth MIC in combination with piperacillin. In kind it is cell-based. To be noted: for MIC (μg/ml; 1:1) E. coli: piperacillin:inhibitor ratio 1:1, broth. On the procedure: (§1) Representative compounds according to the present invention were tested in a microbiological assay in combination with the penicillin antibiotic piperacillin. The enhanced combined synergestic antibacterial activity is representative of the β-lactamase inhibitory properties of the compounds of the present invention. In these tests, minimum inhibitory […] (MIC's) are determined in broth using several two-fold dilutions with a 1:1 ratio of piperacillin to inhibitor (N. A. Kuck, N. V. Jacobus, P. J. Peterson, W. J. Weiss, and R. T. Testa, Antibiotic Agents and Chemotherapy, 33:1964-1969 (1989)).

In assay [3] the test system is S. marcescens (AmpC, Class C). The description is as above. In kind it is cell-based. The conditions noted are these: for MIC (μg/ml; 1:1) S. marcescens: piperacillin:inhibitor ratio 1:1. The procedure: as §1
The target in assay [4] is AmpC β-lactamase (UniProt P18539). In kind it is biochemical. To be noted: read-out: IC50 (nM) AmpC.
Where [5] appears, read: 10 minute preincubation of enzyme with inhibitor at 25° C., nitrocefin substrate, read-out: IC50 (nM) TEM-1.
Where [6] appears, read: 10 minute preincubation of enzyme with inhibitor at 25° C., nitrocefin substrate.

Where two headings read alike, the source gives them in different places. Marks after values point to notes of the source that are not given here. Bounds are passed on as bounds.

TEM-1 β-lactamase, sequence (P62593 24-286 limits assumed): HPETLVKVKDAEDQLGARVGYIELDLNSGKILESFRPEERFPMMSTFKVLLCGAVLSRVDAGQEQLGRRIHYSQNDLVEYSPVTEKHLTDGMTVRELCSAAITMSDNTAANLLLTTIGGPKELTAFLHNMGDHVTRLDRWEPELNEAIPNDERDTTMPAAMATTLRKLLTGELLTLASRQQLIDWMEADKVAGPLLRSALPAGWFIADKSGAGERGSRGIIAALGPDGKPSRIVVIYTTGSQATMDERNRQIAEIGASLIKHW

In the case of `C[C@]1(Cn2ccnn2)C(C(=O)[O-])N2C(=O)[C@@H](CO)C2S1(=O)=O.[Na+]` (some centres unmarked) [Example 1], in assay [1], 6 nM corresponded to half-maximal inhibition (IC50). For the same compound, the “MIC (μg/ml; 1:1) E. coli” value in assay [2] (strain GC2847, TEM-1 (Class A)) is listed as 2^c μg/ml. Further, the “MIC (μg/ml; 1:1) S. marcescens” value in assay [3] (strain GC2894, AmpC (Class C)) is 16^e μg/ml.
Regarding `C[C@]1(/C=C\C#N)[C@H](C(=O)O)N2C(=O)[C@@H](CO)[C@H]2S1(=O)=O` [Example 2 (cis), (Z)-(2S,3S,5R,6R)-6-Hydroxymethyl-3-methyl-3-(3-nitrilo-propenyl)-4,4,7-trioxo-4-lambda(6)-thia-1-azabicyclo[3.2.0]heptane-2-carboxylic acid], the IC50 was found to be 19 nM in assay [1] (setting [5]) and 270 nM in assay [4] (setting [6]). In addition, the “MIC (μg/ml; 1:1) E. coli” value in assay [2] (strain GC6265, TEM-1 (Class A)) turned out to be 4 µg/mL. The “MIC (μg/ml; 1:1) S. marcescens” value in assay [3] (strain GC4132, AmpC (Class C)) is 8 µg/mL.
Consider `CCN1CCN(C(=O)N[C@@H](C(=O)N[C@@H]2C(=O)N3[C@@H]2SC(C)(C)[C@@H]3C(=O)O)c2ccccc2)C(=O)C1=O` [Piperacillin, reference compound], for which the MIC in assay [2] (Escherichia coli, read-out: MIC (μg/ml) E. coli) is greater than 64 µg/mL; in assay [3] (Serratia marcescens, strain GC4132, AmpC (Class C), piperacillin row, no inhibitor named, read-out: MIC (μg/ml) S. marcescens), 32 µg/mL.
In the case of `C[C@]1(/C=C/C#N)[C@H](C(=O)O)N2C(=O)[C@@H](CO)[C@H]2S1(=O)=O` [Example 2 (trans), (E)-(2S,3S,5R,6R)-6-Hydroxymethyl-3-methyl-3-(3-nitrilo-propenyl)-4,4,7-trioxo-4-lambda(6)-thia-1-aza-bicyclo[3.2.0]heptane-2-carboxylic acid], the IC50 in assay [1] (setting [5]) turned out to be 74 nM; in assay [4] (setting [6]), 280 nM. The “MIC (μg/ml; 1:1) E. coli” value in assay [2] (strain GC6265, TEM-1 (Class A)) was 16 µg/mL. Also, the “MIC (μg/ml; 1:1) S. marcescens” value in assay [3] (strain GC4132, AmpC (Class C)) stood at 4 µg/mL.
As for `CON=C[C@@]1(C)[C@H](C(=O)O)N2C(=O)[C@@H](CO)[C@H]2S1(=O)=O` [Example 3, (2S,3R,5R,6R)-6-Hydroxymethyl-3-(methoxyimino-methyl)-3-methyl-4,4,7-trioxo-4-lambda(6)-thia-1-aza-bicyclo[3.2.0]heptane-2-carboxylic acid], the IC50 in assay [1] is 64 nM; in assay [4], 280 nM. Moreover, the “MIC (μg/ml; 1:1) E. coli” value in assay [2] (strain GC6265, TEM-1 (Class A)) is 8 µg/mL. Moreover, in assay [3] (strain GC4132, AmpC (Class C)), the “MIC (μg/ml; 1:1) S. marcescens” value was 16 µg/mL.
For the compound `C[C@]1(Cn2ccnn2)[C@H](C(=O)O)N2C(=O)C[C@H]2S1(=O)=O` [Tazobactam, reference compound], the IC50 in assay [4] stood at 47700 nM. Moreover, in assay [2] (strain GC6265, TEM-1 (Class A)), the “MIC (μg/ml; 1:1) E. coli” value was determined as 2 µg/mL. Moreover, the “MIC (μg/ml; 1:1) S. marcescens” value in assay [3] (strain GC4132, AmpC (Class C)) stood at 32 µg/mL.
